Measured values published in PMC6576746, “Rational discovery of dual-indication multi-target PDE/Kinase inhibitor for precision anti-cancer therapy using structural systems pharmacology” (PLoS Computational Biology, 2019).

Tests used:
Assay in all cases: biochemical
Set-up in all cases: DiscoverX KinomeScan competition binding assay across human kinases; per cent of control at 10 and 100 uM
[1] = biological target: DAPK1 (Homo sapiens, UniProt P53355); conditions: competition binding, % of control; read-out: Percent Control (100 uM Levosimendan)
In short: (§1)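 Binding is expressed as %control, normalised between positive and negative control signals. The compound (levosimendan) was tested at 10 μM and 100 μM in the DiscoverX KinomeScan competition binding format against human kinases.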

[2] = biological target: EPHB4 (Homo sapiens, UniProt P54760); conditions: competition binding, % of control; read-out: Percent Control (100 uM Levosimendan)
In short: as §1

[3] = biological target: FGFR2 (Homo sapiens, UniProt P21802); conditions: competition binding, % of control; read-out: Percent Control (100 uM Levosimendan)
FGFR2, sequence (P21802 whole entry): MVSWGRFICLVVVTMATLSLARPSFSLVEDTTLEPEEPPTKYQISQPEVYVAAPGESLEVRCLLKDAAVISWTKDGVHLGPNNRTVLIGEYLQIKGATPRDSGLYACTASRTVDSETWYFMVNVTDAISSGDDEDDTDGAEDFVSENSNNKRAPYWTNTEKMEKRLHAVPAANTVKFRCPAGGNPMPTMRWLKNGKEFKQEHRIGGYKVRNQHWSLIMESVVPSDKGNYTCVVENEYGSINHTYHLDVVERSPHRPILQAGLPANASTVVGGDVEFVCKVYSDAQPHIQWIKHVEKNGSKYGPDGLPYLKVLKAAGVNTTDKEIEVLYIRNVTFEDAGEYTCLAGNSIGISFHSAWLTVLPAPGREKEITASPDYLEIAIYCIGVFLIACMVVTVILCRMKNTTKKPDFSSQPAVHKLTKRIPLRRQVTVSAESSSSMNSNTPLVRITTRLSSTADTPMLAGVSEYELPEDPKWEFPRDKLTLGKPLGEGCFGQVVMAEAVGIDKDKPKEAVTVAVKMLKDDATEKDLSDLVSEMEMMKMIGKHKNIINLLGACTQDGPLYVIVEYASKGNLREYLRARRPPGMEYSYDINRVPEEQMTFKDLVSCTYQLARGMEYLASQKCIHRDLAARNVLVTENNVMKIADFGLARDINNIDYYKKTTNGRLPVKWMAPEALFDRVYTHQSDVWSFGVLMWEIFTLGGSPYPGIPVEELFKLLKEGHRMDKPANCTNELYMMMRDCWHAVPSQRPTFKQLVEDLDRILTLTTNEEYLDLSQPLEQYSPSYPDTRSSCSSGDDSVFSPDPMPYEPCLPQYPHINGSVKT
In short: as §1

[4] = biological target: NEK2 (Homo sapiens, UniProt P51955); conditions: competition binding, % of control; read-out: Percent Control (100 uM Levosimendan)
NEK2, sequence (P51955 whole entry): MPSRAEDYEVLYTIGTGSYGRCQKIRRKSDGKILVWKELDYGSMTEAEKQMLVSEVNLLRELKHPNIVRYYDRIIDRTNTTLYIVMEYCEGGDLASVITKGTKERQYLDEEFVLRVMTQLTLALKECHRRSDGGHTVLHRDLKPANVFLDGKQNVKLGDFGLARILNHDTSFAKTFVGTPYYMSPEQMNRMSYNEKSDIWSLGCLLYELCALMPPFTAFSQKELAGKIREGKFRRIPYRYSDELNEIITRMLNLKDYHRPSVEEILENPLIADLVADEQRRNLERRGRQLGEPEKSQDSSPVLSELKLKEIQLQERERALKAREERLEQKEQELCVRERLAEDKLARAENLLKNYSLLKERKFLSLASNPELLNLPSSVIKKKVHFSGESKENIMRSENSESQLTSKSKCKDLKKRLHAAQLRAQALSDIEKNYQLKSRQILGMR
In short: as §1

[5] = biological target: PRKX (Homo sapiens, UniProt P51817); conditions: competition binding, % of control; read-out: Percent Control (100 uM Levosimendan)
PRKX, sequence (P51817 whole entry): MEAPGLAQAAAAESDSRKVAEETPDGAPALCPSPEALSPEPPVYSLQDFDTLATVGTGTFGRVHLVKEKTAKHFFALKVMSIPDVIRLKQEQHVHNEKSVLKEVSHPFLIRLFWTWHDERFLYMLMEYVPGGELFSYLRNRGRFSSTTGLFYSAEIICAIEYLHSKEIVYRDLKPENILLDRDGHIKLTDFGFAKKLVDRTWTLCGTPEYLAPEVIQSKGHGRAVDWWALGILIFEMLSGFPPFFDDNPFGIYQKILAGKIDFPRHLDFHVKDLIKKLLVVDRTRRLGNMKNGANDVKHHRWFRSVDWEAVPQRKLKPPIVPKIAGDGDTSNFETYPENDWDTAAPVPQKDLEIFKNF
In short: as §1

[6] = biological target: ACVR1B (Homo sapiens, UniProt P36896); conditions: competition binding, % of control; read-out: Percent Control (100 uM Levosimendan)
In short: as §1

[7] = biological target: KIT (Homo sapiens, UniProt P10721); conditions: competition binding, % of control
KIT, sequence (P10721 whole entry): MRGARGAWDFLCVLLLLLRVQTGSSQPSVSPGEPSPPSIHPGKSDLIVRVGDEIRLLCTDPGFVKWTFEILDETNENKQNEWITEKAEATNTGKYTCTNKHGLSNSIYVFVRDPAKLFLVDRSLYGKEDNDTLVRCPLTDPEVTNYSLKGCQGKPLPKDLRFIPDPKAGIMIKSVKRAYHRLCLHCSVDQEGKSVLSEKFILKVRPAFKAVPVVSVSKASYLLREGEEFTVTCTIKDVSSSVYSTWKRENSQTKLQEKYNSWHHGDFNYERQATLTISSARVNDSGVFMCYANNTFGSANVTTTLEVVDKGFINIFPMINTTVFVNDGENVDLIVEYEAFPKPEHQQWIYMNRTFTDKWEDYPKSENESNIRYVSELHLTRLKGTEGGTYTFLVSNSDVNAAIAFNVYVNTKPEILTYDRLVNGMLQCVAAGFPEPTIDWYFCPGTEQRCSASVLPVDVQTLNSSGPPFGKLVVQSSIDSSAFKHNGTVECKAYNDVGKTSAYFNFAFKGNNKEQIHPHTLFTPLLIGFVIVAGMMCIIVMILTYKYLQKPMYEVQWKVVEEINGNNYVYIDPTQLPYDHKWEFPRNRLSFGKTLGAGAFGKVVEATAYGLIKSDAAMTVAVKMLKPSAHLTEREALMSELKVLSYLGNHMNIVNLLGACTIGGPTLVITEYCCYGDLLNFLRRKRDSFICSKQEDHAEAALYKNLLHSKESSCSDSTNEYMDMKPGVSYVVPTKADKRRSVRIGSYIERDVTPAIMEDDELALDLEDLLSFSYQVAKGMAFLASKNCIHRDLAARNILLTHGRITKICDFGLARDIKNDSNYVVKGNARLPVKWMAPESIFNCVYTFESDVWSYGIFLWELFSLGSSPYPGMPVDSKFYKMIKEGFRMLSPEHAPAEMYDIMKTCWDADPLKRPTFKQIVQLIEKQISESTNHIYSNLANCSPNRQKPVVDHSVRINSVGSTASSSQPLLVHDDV
In short: as §1

[8] = biological target: SLK (Homo sapiens, UniProt Q9H2G2); conditions: competition binding, % of control; read-out: Percent Control (100 uM Levosimendan)
In short: as §1

[9] = biological target: SYK (Homo sapiens, UniProt P43405); conditions: competition binding, % of control; read-out: Percent Control (100 uM Levosimendan)
In short: as §1

[10] = biological target: CDKL3 (Homo sapiens, UniProt Q8IVW4); conditions: competition binding, % of control; read-out: Percent Control (100 uM Levosimendan)
In short: as §1

[11] = biological target: T1, YANK2 (Homo sapiens, UniProt Q9NY57); conditions: competition binding, % of control; read-out: Percent Control (100 uM Levosimendan)
T1 construct: gene STK32B
In short: as §1

[12] = biological target: T2, PFTK1 (Homo sapiens, UniProt O94921); conditions: competition binding, % of control; read-out: Percent Control (100 uM Levosimendan)
T2 construct: gene CDK14
In short: as §1

[13] = biological target: GRK3 (Homo sapiens, UniProt P35626); conditions: competition binding, % of control; read-out: Percent Control (100 uM Levosimendan)
In short: as §1

[14] = biological target: HIPK2 (Homo sapiens, UniProt Q9H2X6); conditions: competition binding, % of control; read-out: Percent Control (100 uM Levosimendan)
In short: as §1

[15] = biological target: T3, MINK (Homo sapiens, UniProt Q8N4C8); conditions: competition binding, % of control
T3 construct: gene MINK1
T3 sequence (Q8N4C8 whole entry): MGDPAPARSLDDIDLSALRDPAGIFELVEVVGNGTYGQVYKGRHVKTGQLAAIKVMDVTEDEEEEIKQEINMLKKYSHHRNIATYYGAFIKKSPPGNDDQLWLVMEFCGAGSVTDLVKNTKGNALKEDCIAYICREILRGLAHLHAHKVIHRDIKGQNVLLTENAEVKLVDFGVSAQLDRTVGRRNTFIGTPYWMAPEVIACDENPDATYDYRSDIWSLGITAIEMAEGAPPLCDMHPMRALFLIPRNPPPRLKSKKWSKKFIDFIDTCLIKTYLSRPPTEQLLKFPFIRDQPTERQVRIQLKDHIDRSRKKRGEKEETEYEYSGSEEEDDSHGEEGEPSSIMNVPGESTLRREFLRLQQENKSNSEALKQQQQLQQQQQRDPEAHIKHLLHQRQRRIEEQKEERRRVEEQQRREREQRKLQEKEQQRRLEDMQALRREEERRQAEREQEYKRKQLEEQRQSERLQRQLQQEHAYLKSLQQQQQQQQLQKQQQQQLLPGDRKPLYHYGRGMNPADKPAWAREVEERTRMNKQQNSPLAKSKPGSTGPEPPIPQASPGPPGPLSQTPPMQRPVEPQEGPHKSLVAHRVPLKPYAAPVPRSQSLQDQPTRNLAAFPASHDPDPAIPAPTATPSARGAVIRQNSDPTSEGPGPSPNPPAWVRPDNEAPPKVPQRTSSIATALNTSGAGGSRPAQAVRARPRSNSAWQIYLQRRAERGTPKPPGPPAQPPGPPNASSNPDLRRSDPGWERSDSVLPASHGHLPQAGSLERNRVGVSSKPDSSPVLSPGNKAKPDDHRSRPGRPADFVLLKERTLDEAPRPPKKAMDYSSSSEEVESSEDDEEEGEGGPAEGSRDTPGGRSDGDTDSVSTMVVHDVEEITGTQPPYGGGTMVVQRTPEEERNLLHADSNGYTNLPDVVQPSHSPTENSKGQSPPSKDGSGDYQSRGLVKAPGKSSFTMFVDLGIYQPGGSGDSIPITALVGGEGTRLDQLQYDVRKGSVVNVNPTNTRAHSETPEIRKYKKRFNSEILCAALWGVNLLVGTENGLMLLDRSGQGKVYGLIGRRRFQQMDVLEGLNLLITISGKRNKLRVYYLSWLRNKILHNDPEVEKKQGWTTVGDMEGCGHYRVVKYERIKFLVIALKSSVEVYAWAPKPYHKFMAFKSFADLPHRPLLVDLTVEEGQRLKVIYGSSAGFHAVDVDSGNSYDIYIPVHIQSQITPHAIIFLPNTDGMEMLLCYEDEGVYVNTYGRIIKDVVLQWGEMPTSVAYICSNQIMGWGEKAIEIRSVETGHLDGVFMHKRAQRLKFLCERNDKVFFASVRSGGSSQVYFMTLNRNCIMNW
In short: as §1

[16] = biological target: T4, CAMK1B (Homo sapiens, UniProt Q6P2M8); conditions: competition binding, % of control; read-out: Percent Control (100 uM Levosimendan)
T4 construct: gene PNCK
T4 sequence (Q6P2M8 whole entry): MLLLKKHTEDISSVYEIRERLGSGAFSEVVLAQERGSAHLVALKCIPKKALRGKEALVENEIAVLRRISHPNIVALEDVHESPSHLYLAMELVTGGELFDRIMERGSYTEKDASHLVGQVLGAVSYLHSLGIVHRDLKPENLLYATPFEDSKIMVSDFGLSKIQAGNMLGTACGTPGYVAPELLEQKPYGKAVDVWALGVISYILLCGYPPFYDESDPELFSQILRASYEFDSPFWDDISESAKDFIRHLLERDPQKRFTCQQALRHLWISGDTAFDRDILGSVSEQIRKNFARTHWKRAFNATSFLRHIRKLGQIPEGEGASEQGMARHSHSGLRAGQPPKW
In short: as §1

[17] = biological target: T5, IKK-epsilon (Homo sapiens, UniProt Q14164); conditions: competition binding, % of control; read-out: Percent Control (100 uM Levosimendan)
T5 construct: gene IKBKE
In short: as §1

[18] = biological target: EPHA7 (Homo sapiens, UniProt Q15375); conditions: competition binding, % of control; read-out: Percent Control (100 uM Levosimendan)
In short: as §1

[19] = biological target: PAK6 (Homo sapiens, UniProt Q9NQU5); conditions: competition binding, % of control; read-out: Percent Control (100 uM Levosimendan)
PAK6, sequence (Q9NQU5 whole entry): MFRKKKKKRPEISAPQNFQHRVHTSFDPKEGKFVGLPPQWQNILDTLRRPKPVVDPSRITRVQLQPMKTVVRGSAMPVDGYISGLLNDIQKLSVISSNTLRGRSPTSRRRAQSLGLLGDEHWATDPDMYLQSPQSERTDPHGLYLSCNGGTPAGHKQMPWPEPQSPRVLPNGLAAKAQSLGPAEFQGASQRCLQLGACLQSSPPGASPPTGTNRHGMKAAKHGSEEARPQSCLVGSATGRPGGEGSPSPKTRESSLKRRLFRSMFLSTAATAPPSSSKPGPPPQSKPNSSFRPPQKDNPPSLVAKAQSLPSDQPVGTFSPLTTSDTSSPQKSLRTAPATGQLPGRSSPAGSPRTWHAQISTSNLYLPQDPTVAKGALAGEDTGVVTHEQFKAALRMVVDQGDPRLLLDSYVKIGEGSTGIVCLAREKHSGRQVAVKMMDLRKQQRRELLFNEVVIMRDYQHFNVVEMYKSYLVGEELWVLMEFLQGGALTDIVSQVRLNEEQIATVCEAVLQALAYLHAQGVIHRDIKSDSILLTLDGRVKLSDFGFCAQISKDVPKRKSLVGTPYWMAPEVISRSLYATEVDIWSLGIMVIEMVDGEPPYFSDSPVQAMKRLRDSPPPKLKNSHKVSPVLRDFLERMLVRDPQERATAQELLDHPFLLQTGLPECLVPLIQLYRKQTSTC
In short: as §1

[20] = read-out: Percent Control (10 uM Levosimendan)
[21] = read-out: Percent Control (100 uM Levosimendan)

A remaining binding at 100 µM [1] of 88%, a remaining binding at 100 µM [2] of 85% and a remaining binding at 100 µM [3] of 61% were found for `C[C@@H]1CC(=O)NN=C1c1ccc(NN=C(C#N)C#N)cc1` [levosimendan] in this work. For the same compound, the remaining binding at 100 µM [4] was 96%, the remaining binding at 100 µM [5] was 76% and the remaining binding at 100 µM [6] was 61%. The remaining binding at 10 µM [7, 20] was 26%, the remaining binding at 100 µM [7, 21] was 3.5% and the remaining binding at 100 µM [8] was 85%. For the same compound, the remaining binding at 100 µM [9] was 78%, the remaining binding at 100 µM [10] was 100% and the remaining binding at 100 µM [11] was 92%. It also gave a remaining binding at 100 µM [12] of 67%, a remaining binding at 100 µM [13] of 100% and a remaining binding at 100 µM [14] of 69%. It also gave a remaining binding at 10 µM [15, 20] of 77%, a remaining binding at 100 µM [15, 21] of 26% and a remaining binding at 100 µM [16] of 100%. It also gave a remaining binding at 100 µM [17] of 93%, a remaining binding at 100 µM [18] of 85% and a remaining binding at 100 µM [19] of 70%.
